# Measured values: US12686971B2, “Method of controlling enzymatic activities and tools related thereto” (KEMIRA OYJ, priority 2020, dated 2026)
# Tests used:
# [1] = tested on: cellulase; test: Cellulase activity of RCF pulp samples, Enzchek Cellulase substrate; assay type: biochemical
# Method: Cellulase activity expressed here as “mU/ml” may be obtained using Enzchek Cellulase substrate (Life Technologies, part of Thermo Fisher Scientific), using the manufacturer's instructions and measurement protocol where sodium acetate buffer is adjusted to pH 6.0 and the samples are diluted 1/10 to minimize inhibition and quenching by fibers.
# For example, in soil research microbial cellulolytic potential can be tested with agar plate cultivation, but there are also commercially available substrates for measurement of cellulase activity directly from aqueous samples (cellulase production organism cultivation broths/extracts).
# According to the supplier, the assay limit of detection is ~110% of the signal for blank (buffer instead of sample). In addition, standard curve was measured as recommended with Trichoderma mold cellulase (at recommended pH 5.0), but in addition also with Bacillus amyloliquefaciens cellulase (Megazyme; at recommended pH 6.0). Both gave near-linear standard curve with good sensitivity.
# (§1) Short-term and long-term effect of biocides on cellulase activity of process samples was tested with laboratory incubations of recycled fiber (RCF) pulp samples at 40° C.
# [2] = tested on: Aerobic bacteria; test: Culturable aerobic bacterial count in pulp; assay type: cell-based
# Method: as §1
# (§2) 50 g liner board was re-pulped with process water from a mill using recycled fiber. The final consistency of the pulp was 1.0% and the liner was from a mill using ~50% unbleached kraft pulp and ~50% recycled fiber. This mill uses about 6 kg/ton wet-end starch in the production of the liner. The pulp suspension was divided into 12 bottles. Six of the bottles were put into an incubator with no other treatment. The other 6 bottles were first pasteurized (1 h, +80° C.) in order to inactivate any enzymes present. After that, the bottles were treated with a combination of a biocide (Mixture of DBNPA, bronopol and CMIT/MIT, 100 mg/l as active substance) and either zinc or zinc comprising compound (25 mg/l as Zn^2+). After this, all 12 bottles were kept at +40° C. with shaking for 3 days. At the beginning of the incubation, the pH of the pulp was 6.64, redox+160 mV and conductivity 5.46 mS/cm.
# 50 g liner board (from two different mills: 50% from a mill using ~50% unbleached kraft pulp and ~50% recycled fiber and 50% from a mill using 100% recycled fiber) was re-pulped with process water from a third mill using recycled fiber. The final consistency of the pulp was 1.0%. The pulp suspension was divided into 12 bottles and starch suspension (native potato starch) was added into each bottle, so that the concentration of added starch was 1.5 g/l. Six of the bottles (numbers 1-6) were put into an incubator with no other treatment. The other 6 bottles (numbers 7-12) were first pasteurized (1 h, +80° C.) in order to inactivate any enzymes present. After that, the bottles were treated with a biocide (50 mg/l monochloramine, as active chlorine). […] At the beginning of the incubation, the pH of the pulp was 6.0, redox −46 mV and conductivity 4.8 mS/cm.
# [3] = tested on: Anaerobic bacteria; test: Anaerobic bacterial count in pulp; assay type: cell-based; conditions: pasteurized 1 h +80° C., 50 mg/l monochloramine then 10 mg/l daily, 4 d at +40° C., n = 6
# Method: as §2
# After 3 d pH, ORP, and total and cellulolytic bacterial amounts were measured from each bottle.
# 50 g liner board (from two different mills: 50% from a mill using ~50% unbleached kraft pulp and ~50% recycled fiber and 50% from a mill using 100% recycled fiber) was re-pulped with process water from a third mill using recycled fiber. The final consistency of the pulp was 1.0%. […]
# After 4 d pH, ORP, bacterial amounts and cellulase activity were measured from each bottle.
# [4] = tested on: ATP; test: ATP measured from pulp bottles; assay type: cell-based; conditions: after 2 d
# Method: 50 g liner board (from two different mills: 50% from a mill using ~50% unbleached kraft pulp and ~50% recycled fiber and 50% from a mill using 100% recycled fiber) was re-pulped with process water from a third mill using recycled fiber. The final consistency of the pulp was 1.0%. The pulp suspension was divided into 12 bottles and starch suspension (native potato starch) was added into each bottle, so that the concentration of added starch was 1.5 g/l. Six of the bottles (numbers 1-6) were put into an incubator with no other treatment. The other 6 bottles (numbers 7-12) were first pasteurized (1 h, +80° C.) in order to inactivate any enzymes present. After that, the bottles were treated with a biocide (50 mg/l monochloramine, as active chlorine). After this, all 12 bottles were kept at +40° C. with shaking for 4 days. During the incubation, 10 mg/l monochloramine was added daily into the bottles 7-12). At the beginning of the incubation, the pH of the pulp was 6.0, redox −46 mV and conductivity 4.8 mS/cm.
# After 2 d, ATP was measured from each bottle and was 1000-fold higher in non-treated than treated bottles (average 71 000 pg/ml, st.dev. 3800, vs. average 70, st.dev. 7 pg/ml, respectively).
# [5] = RCF pulp, MCA Day 1 50 mg/l, Day 2 and 3 10 mg/l, Days 4-8 no addition
# [6] = pasteurized 1 h +80° C., 50 mg/l monochloramine then 10 mg/l daily, 4 d at +40° C., n = 6
structure (smiles),measurement,setting,value
"NCl [MCA, monochloramine]",cellulase activity in process sample,"[1]; 5 d after the last biocide dosage, corresponding to 134% of the blank",~ 0.2 mU/ml
same,"Cellulase activity at 7 d, % compared to blank",[1]; [5],134%
same,"Cellulase activity, Average",[1]; [6],0.44 mU/ml
same,reduction of total CFUs,"[2]; 3-day experiment, daily dosages of MCA",5 orders of magnitude
same,"Aerobic bacteria, 3 d, cfu/ml","[2]; RCF pulp, MCA Day 1 50 mg/l, Day 2 and 3 10 mg/l",6000 cfu/ml
same,"Aerobic bacteria, 6 d, cfu/ml",[2]; [5],30 000 000 cfu/ml
same,"Aerobic bacteria, Average",[2]; [6],"8 700 cfu, ml"
same,"Anaerobic bacteria, Average",[3],970 cfu/ml
same,ATP higher in non-treated than treated bottles,[4],1000 fold
same,"ATP, average","[4]; treated bottles, 50 mg/l monochloramine then 10 mg/l daily, +40° C.",70 pg/mL
